# Reference: patent US10544130B2, “Metallo-beta-lactamase inhibitors” (priority 2015, dated 2020)
# Assays:
# Type in all cases: cell-based
# Details in all cases: with imipenem 1 μg/ml; 95% inhibition of bacterial growth
# [1] = test system: Serratia marcescens expressing IMP-1 (CL5741)
# In short: (§1)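 Growth read by absorbance after 22–24 h at 35 °C in CAMHB, with test compound alone or combined with 1 μg/ml imipenem. Inocula came from overnight 35 °C blood-agar colonies, set to a defined OD600 and diluted 1:100. Value is the inhibitor concentration giving synergy.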
# [2] = test system: Klebsiella pneumoniae expressing VIM-1 (IHMA599644)
# In short: as §1
# [3] = test system: Escherichia coli expressing NDM-1 (CLB30005, CLB30016)
# In short: as §1
smiles,measurement,setting,value
"NC[C@H](N)CNS(=O)(=O)c1ccc(-c2cccc(-c3c[nH]c(N)n3)c2)c(-c2nn[nH]n2)c1S(N)(=O)=O [Example 434, (S)-3′-(2-amino-1H-imidazol-4-yl)-N^4-(2,3-diaminopropyl)-2-(2H-tetrazol-5-yl)-[1,1′-biphenyl]-3,4-disulfonamide]",Serratia marcescens (IMP-1) MITC95,[1],1.563 µM
same,Klebsiella pneumoniae (VIM-1) MITC95,[2],1.563 µM
same,Escherichia coli (NDM-1) MITC95,[3],0.7813 µM
"NCC(CN)NS(=O)(=O)c1ccc(-c2cccc(-c3c[nH]c(N)n3)c2)c(-c2nn[nH]n2)c1S(N)(=O)=O [Example 435, 3′-(2-amino-1H-imidazol-4-yl)-N4-(1,3-diaminopropan-2-yl)-2-(2H-tetrazol-5-yl)-[1,1′-biphenyl]-3,4-disulfonamide]",Serratia marcescens (IMP-1) MITC95,[1],3.125 µM
same,Klebsiella pneumoniae (VIM-1) MITC95,[2],3.125 µM
same,Escherichia coli (NDM-1) MITC95,[3],1.563 µM
"NCC(CN)NS(=O)(=O)c1ccc(-c2cccc(-c3cnc(N)[nH]3)n2)c(-c2nnn[nH]2)c1S(N)(=O)=O [Example 438, 4-(6-(2-Amino-1H-imidazol-5-yl)pyridin-2-yl)-N^1-(1,3-diaminopropan-2-yl)-3-(1H-tetrazol-5-yl)benzene-1,2-disulfonamide]",Serratia marcescens (IMP-1) MITC95,[1],3.125 µM
same,Klebsiella pneumoniae (VIM-1) MITC95,[2],3.125 µM
same,Escherichia coli (NDM-1) MITC95,[3],3.125 µM
"Nc1ncc(-c2cc(-c3ccc(S(=O)(=O)N[C@@H]4CCNC4)c(S(N)(=O)=O)c3-c3nnn[nH]3)ccn2)[nH]1 [Example 440, (R)-4-(2-(2-Amino-1H-imidazol-5-yl)pyridin-4-yl)-N^1-(pyrrolidin-3-yl)-3-(1H-tetrazol-5-yl)benzene-1,2-disulfonamide]",Serratia marcescens (IMP-1) MITC95,[1],1.563 µM
same,Klebsiella pneumoniae (VIM-1) MITC95,[2],1.563 µM
same,Escherichia coli (NDM-1) MITC95,[3],0.7813 µM
"C[C@H](N)Cc1nc2c(-c3ccc(S(=O)(=O)N[C@@H]4CCNC4)c(S(N)(=O)=O)c3-c3nn[nH]n3)cccc2[nH]1 [Example 441, 4-(2-((S)-2-Aminopropyl)-1H-benzo[d]imidazol-4-yl)-N1-((R)-pyrrolidin-3-yl)-3-(2H-tetrazol-5-yl)benzene-1,2-disulfonamide]",Serratia marcescens (IMP-1) MITC95,[1],1.563 µM
same,Klebsiella pneumoniae (VIM-1) MITC95,[2],1.563 µM
same,Escherichia coli (NDM-1) MITC95,[3],1.563 µM
"NCC(F)(F)c1nc2c(-c3ccc(S(=O)(=O)N[C@H]4CCNC4)c(S(N)(=O)=O)c3-c3nn[nH]n3)cccc2[nH]1 [Example 446, (S)-4-(2-(2-amino-1,1-difluoroethyl)-1H-benzo[d]imidazol-4-yl)-N1-(pyrrolidin-3-yl)-3-(2H-tetrazol-5-yl)benzene-1,2-disulfonamide]",Serratia marcescens (IMP-1) MITC95,[1],3.125 µM
same,Klebsiella pneumoniae (VIM-1) MITC95,[2],3.125 µM
same,Escherichia coli (NDM-1) MITC95,[3],1.563 µM
"NCCNC(=O)c1cc(Cl)cc(-c2ccc(S(=O)(=O)NCCN)c(S(N)(=O)=O)c2-c2nn[nH]n2)c1N [Example 447, 2-Amino-N-(2-aminoethyl)-4′-(N-(2-aminoethyl)sulfamoyl)-5-chloro-3′-sulfamoyl-2′-(2H-tetrazol-5-yl)-[1,1′-biphenyl]-3-carboxamide]",Serratia marcescens (IMP-1) MITC95,[1],0.7813 µM
same,Klebsiella pneumoniae (VIM-1) MITC95,[2],1.563 µM
same,Escherichia coli (NDM-1) MITC95,[3],0.7813 µM
"NCCNC(=O)c1cc(Cl)cc(-c2ccc(S(=O)(=O)N[C@@H]3CCNC3)c(S(N)(=O)=O)c2-c2nn[nH]n2)c1N [Example 450, (R)-2-Amino-N-(2-aminoethyl)-5-chloro-4′-(N-(pyrrolidin-3-yl)sulfamoyl)-3′-sulfamoyl-2′-(2H-tetrazol-5-yl)-[1,1′-biphenyl]-3-carboxamide]",Serratia marcescens (IMP-1) MITC95,[1],1.563 µM
same,Klebsiella pneumoniae (VIM-1) MITC95,[2],1.563 µM
same,Escherichia coli (NDM-1) MITC95,[3],1.563 µM
